Results reported in BigSolDB 2.1.

Nc1ccc(S(=O)(=O)Nc2ncccn2)cc1
solubility (mole fraction) (in NMP, 278.15 K): 0.0118 | solubility (mole fraction) (in NMP, 283.15 K): 0.0137 | solubility (mole fraction) (in NMP, 288.15 K): 0.0153 | solubility (mole fraction) (in NMP, 293.15 K): 0.018 | solubility (mole fraction) (in NMP, 298.15 K): 0.0194 | solubility (mole fraction) (in NMP, 303.15 K): 0.0224 | solubility (mole fraction) (in NMP, 308.15 K): 0.132 | solubility (mole fraction) (in NMP, 313.15 K): 0.137 | solubility (mole fraction) (in water, 278.15 K): 1.89e-06 | solubility (mole fraction) (in water, 283.15 K): 2.51e-06 | solubility (mole fraction) (in water, 288.15 K): 3.18e-06 | solubility (mole fraction) (in water, 293.15 K): 3.96e-06 | solubility (mole fraction) (in water, 298.15 K): 5.13e-06 | solubility (mole fraction) (in water, 303.15 K): 6.32e-06 | solubility (mole fraction) (in water, 308.15 K): 8.03e-06 | solubility (mole fraction) (in water, 313.15 K): 9.98e-06
